The target of one series is T1, MMP-2 (Homo sapiens, UniProt P08253).
T1 construct: purchased Yagai (Yamagata pref., Japan)
T1 sequence (P08253 110-660): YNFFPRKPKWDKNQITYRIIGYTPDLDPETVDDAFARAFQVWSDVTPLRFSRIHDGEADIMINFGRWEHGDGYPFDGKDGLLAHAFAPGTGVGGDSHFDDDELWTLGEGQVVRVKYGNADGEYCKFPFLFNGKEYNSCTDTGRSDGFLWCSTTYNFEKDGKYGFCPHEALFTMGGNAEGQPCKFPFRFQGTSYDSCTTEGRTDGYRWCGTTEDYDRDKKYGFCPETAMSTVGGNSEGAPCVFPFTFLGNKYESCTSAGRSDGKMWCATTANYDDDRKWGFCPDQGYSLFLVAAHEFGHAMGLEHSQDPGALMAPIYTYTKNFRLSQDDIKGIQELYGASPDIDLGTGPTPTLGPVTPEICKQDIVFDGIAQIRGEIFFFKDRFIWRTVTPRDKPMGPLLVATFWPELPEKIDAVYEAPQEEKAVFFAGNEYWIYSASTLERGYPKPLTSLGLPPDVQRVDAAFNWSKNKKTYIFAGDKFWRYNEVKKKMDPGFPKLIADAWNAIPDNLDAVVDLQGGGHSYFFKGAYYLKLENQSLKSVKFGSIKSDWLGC
As to the kind of experiment: Assay for inhibitory activity against MMP-2.
Details: not given
It is filed as biochemical. As for the experimental part:
(§1) Assay for Inhibitory Activities of MMP-9 and MMP-2
(§2) The enzymatic activity was analyzed on the method described by Knight, C. G., et al. (C. Graham Knight., Frances Willenbrock and Gillian Murphy: A novel coumarin-labelled peptide for sensitive continuous assays of the matrix metalloproteinases. FEBS Lett., 296 (1992) 263-266).
MMP-2 was purchased from Yagai (Yamagata pref., Japan).
(§3) MOCAc-Pro-Leu-Gly-Leu-A2pr(Dnp)-Ala-Arg-NH2 as a substrate was purchased from Petide Institute(Osaka pref., Japan). This substrate was dissolved in DMSO at a concentration of 1 mM.
(§4) Reaction buffer consists of 50 mM Tris-HCl buffer (pH 7.5) containing 10 mM CaCl2, 0.3 M NaCl, 0.005% Brij35 and 0.01% NaN3.
Assay Method of Inhibitory Activity Against MMP-2:
1.0 μl of a tested compound in DMSO is added to 48.0 μl of a reaction buffer containing 0.05 μl of an enzyme solution. After standing for 60 minutes at room temperature, the reaction was started by adding 1.0 μl of a substrate solution. After incubation for 60 minutes at room temperature, 100 μl of 3% (v/v) AcOH for reaction stopping and measured a fluorescence with excitation and emission at 320 nm and 405 nm, respectively (Spectrophotofluorometer; Fluoroscan Ascent (Labsystem)).
(§5) The measurement of the inhibitory activities (IC50) was carried out in a following four methods;
(§6) A) Reaction with substrate, enzyme and inhibitor
(§7) B) Reaction with substrate and inhibitor, without enzyme
(§8) C) Reaction with substrate and enzyme, without inhibitor
(§9) D) Reaction with substrate only
(§10) IC50 values were calculated by using a following formula and each fluorescence values of above four methods (A to D).
(§11) % inhibition={1−(A−B)/(C−D)}×100
(§12) IC50 means the concentration required to inhibit 50% of the enzyme activity.
T2 sequence (P14780 107-707 limits assumed): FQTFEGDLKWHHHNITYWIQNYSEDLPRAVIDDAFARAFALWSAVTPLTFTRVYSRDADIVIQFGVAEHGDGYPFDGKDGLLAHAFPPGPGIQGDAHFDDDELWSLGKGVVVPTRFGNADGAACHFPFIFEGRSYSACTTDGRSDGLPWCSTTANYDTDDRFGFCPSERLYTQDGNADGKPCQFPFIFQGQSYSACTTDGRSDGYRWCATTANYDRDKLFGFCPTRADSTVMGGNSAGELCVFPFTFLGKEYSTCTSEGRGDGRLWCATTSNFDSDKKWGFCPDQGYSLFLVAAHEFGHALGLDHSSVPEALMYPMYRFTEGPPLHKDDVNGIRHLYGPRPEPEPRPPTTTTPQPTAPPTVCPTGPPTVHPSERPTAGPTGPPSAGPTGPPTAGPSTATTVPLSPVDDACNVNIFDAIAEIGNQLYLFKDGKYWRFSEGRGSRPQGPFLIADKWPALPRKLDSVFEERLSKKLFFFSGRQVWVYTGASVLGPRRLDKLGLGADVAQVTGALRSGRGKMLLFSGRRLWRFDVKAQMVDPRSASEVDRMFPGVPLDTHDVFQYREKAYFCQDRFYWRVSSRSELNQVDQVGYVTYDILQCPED
For orientation: IC50 means the point on the concentration scale where inhibition reaches its midpoint. Take `Cc1ccc(-n2nnc(-c3ccc(S(=O)(=O)N[C@H](Cc4ccccc4)C(=O)O)s3)n2)cc1` [Compound 95]: the half-inhibitory concentration (IC50) was determined as 0.0107 µM.
The same measure, in the same setting: the figure for `CC(C)[C@@H](NS(=O)(=O)c1ccc(-n2nnc(-c3ccc(C(F)(F)F)cc3)n2)cc1)C(=O)O` [Compound 104] is 0.00202 µM; for `CCc1ccc(-c2nnn(-c3ccc(S(=O)(=O)N[C@H](Cc4ccccc4)C(=O)O)cc3)n2)cc1` [Compound 108] it is 0.00992 µM.
`C[C@@H](NS(=O)(=O)c1ccc(-n2nnc(-c3ccc(F)cc3)n2)cc1)C(=O)O` [Compound 114] registered an IC50 of 0.0278 µM.

The test system of a further series is E30 monoclonal antibody-induced glomerulonephritis in Slc-Wistar rats. As to the kind of experiment: Urinary protein excretion in E30 monoclonal antibody-induced glomerulonephritis rats. The class given is in vivo, rat. The note with it: urinary protein excretion on day 2 after E30 injection, compound-treated vs vehicle-treated group, oral, 100 mg once a day, first dose 2 hours before E30. As for the experimental part: Five to eight weeks old male Slc-Wistar rats were used in the experiment.
In order to induce glomerulonephritis, E30 of 20 to 500 μg, preferably 50 to 200 μg, is intravenously injected to rats of five to eight weeks old. Test compounds of 0.1 to 500 mg, preferably 1 to 200 mg, are suspended with 3 to 10%, preferably 4 to 6%, gum arabic solution and the like, and are orally given 1 to 5 hours, preferably 1.5 to 3 hours, prior to E30 injection. Constant amount of test compounds are then consecutively given 1 to 3 times a day. Evaluation of test compounds are determined by the amount of urinary protein excretion 2 days after E30 injection when proteinuria reaches to the maximum level.
Determination of the amount of urinary protein excretion is performed by the collection of 24-hour urine samples with stainless metabolic cages followed by the measurement of the concentration of urinary protein. Blood samples obtained at the follow-up period are processed for the determination of blood urea nitrogen and plasma creatinine, which indicate renal function. As a marker of damaged renal tubules, urinary amounts of N-acetyl-D-glycosaminidase excretion is measured. Furthermore, to study the inhibitory effects of compounds on mesangial proliferation following E30 injection, the number of PCNA (proliferating cell nuclear antigen) positive cells per single glomerulus is counted. Morphological changes are observed with light and electron microscopy.
5-week-old male Slc-Wistar rats were reared under the conditions of room temperature of 25° C., 40-60% humidity and 12 hour cycles of light and darkness and fed on solid chow (CA-1, Clea Japan) and tap water ad libitum. After one week's preliminary rearing, each rat was housed in a stainless metabolic cage for acclimation for one week, and was used for experiment at 7 weeks of old (body weight: 150-180 g). E30 monoclonal antibody (J.J.N., vol. 36, p106, 1994) was diluted with saline at 100 μg/0.4 ml and was administered from tail vein at the volume of 0.4 ml/body. Compound (2) was suspended with 5% gum arabic solution and was given at the dose of 100 mg 2 hours before E30 injection. Subsequently, compound (2) of 100 mg was orally administered once a day from the next day. The rats were housed in stainless metabolic cages just after the administration of test compound, and then 24-hour urine samples were collected. After measuring the volume, the urine was centrifuged at 3000 rpm for 10 min at room temperature. […] Urinary protein was determined by pyrogallole red method (Micro TP-test Wako, Wako Zyunyaku). The amount of urinary protein excretion on day 2 in compound-treated group was compared with that in vehicle-treated one, and inhibitory ratio of urinary protein excretion was calculated. […]
Take `Cc1ccc(-n2nnc(-c3ccc(S(=O)(=O)N[C@H](Cc4ccccc4)C(=O)O)s3)n2)cc1` [Compound 95]: the “Inhibitory rate (%) of urinary protein excretion” value is listed as 21%.
Same read-out and setting: the figure for `CC(C)[C@@H](NS(=O)(=O)c1ccc(-n2nnc(-c3ccc(C(F)(F)F)cc3)n2)cc1)C(=O)O` [Compound 104] is 27%; for `CCc1ccc(-c2nnn(-c3ccc(S(=O)(=O)N[C@H](Cc4ccccc4)C(=O)O)cc3)n2)cc1` [Compound 108] it is 35%.
On the same count and under the same terms, the figure for `C[C@@H](NS(=O)(=O)c1ccc(-n2nnc(-c3ccc(F)cc3)n2)cc1)C(=O)O` [Compound 114] is 2.7%.

A further series has as its target T2, MMP-9 (Homo sapiens, UniProt P14780).
T2 construct: made in house; host or cells: HT1080 human fibrosarcoma cells; endogenous protein secreted after TPA treatment and purified from conditioned medium
As to the kind of experiment: Assay for inhibitory activity against MMP-9. It is filed as biochemical.
Details: not given
As for the experimental part:
as §1, §2
MMP-9 was purified by using a combination of procedures described in previous reports as follows. Yasunori Okada, Yukio Gonoji, Katsumi Naka, Katsuro Tomita, Isao Nakanishi, Kazushi Iwata and Taro Hayakawa: Matrix metalloproteinase 9 (92-kDa gelatinase/type IV collagenase) from HT1080 human fibrosarcoma cells. Purification and activation of the precursor and enzymic properties. J. Biol. Chem., 267 (1992) 21712-21719. Yasunori Okada, Tatsuhisa Morodomi, Jan J, Enghild, Ko Suzuki, Atsushi Yasui, Isao Nakanishi, Guy Salvesen and Hideaki Nagase: Matrix metalloproteinase 2 from human rheumatoid synovial fibroblasts. Purification and activation of the precursor and enzymic properties. Eur. J. Biochem. 194 (1990) 721-730. Robin V Ward, Rosalind M Hembry, John J Reynolds and Gillian Murphy: The purification of tissue inhibitor of metalloproteinase-2 from its 72 kDa progelatinase complex. Biochem. J. 278 (1991) 179-187.
Briefly, human fibrosarcoma ATCC HT1080 cell line was cultured to confluent in Dulbecco's Modified Medium (DMEM) containing 10% fetal-calf serum at 37° C. for 48 hours. Subsequently, the medium of confluent culture was changed to serum-free DMEM medium. To obtain MMP-9, Phorbol-12-myristate-13-acetate (TPA) must be added to this serum-free DMEM medium at a concentration of 50 ng/ml. The TPA treated medium was centrifuged at 3000 rpm for 15 min and the supernatant was concentrated to 450 ml by a Toyo-Roshi UP-20 apparatus with an ultrafiltration membrane. Then, proMMP-9 in this concentrated solution was purified by using columns of Gelatin-Sepharose and Concanavalin A-Sepharose. The pool containing proMMP-9 was dialyzed, concentrated (Toyo-Roshi UP-20) and applied to columns of Sephacryl S-200 and Green A matrix for the separation from TIMPs. The obtained proMMP-9 fraction was activated by TPCK-Trypsin (final conc. […] reaction mix.) for the assay.
as §3, §4
Assay Method of Inhibitory Activity Against MMP-9:
1.0 μl of a tested compound in DMSO is added to 48.0 μl of a reaction buffer containing 0.08 μl of an enzyme solution. After standing for 60 minutes at room temperature, the reaction was started by adding 1.0 μl of a substrate solution. After incubation for 60 minutes at room temperature, 100 μl of 3% (v/v) AcOH for reaction stopping and measured a fluorescence with excitation and emission at 320 nm and 405 nm, respectively (Spectrophotofluorometer; Fluoroscan Ascent (Labsystem)).
as §5, §6, §7, §8, §9, §10, §11, §12
Take `Cc1ccc(-n2nnc(-c3ccc(S(=O)(=O)N[C@H](Cc4ccccc4)C(=O)O)s3)n2)cc1` [Compound 95]: the concentration for half-maximal inhibition (IC50) stood at 0.019 µM.
The same measure, in the same setting: the figure for `CC(C)[C@@H](NS(=O)(=O)c1ccc(-n2nnc(-c3ccc(C(F)(F)F)cc3)n2)cc1)C(=O)O` [Compound 104] is 0.0187 µM; for `CCc1ccc(-c2nnn(-c3ccc(S(=O)(=O)N[C@H](Cc4ccccc4)C(=O)O)cc3)n2)cc1` [Compound 108] it is 0.0312 µM.
In the case of `C[C@@H](NS(=O)(=O)c1ccc(-n2nnc(-c3ccc(F)cc3)n2)cc1)C(=O)O` [Compound 114], the 50% inhibitory concentration (IC50) was determined as 0.316 µM.

Tested on in the next series: not given
Experiment: not given
Details: not given
The term melting point denotes the temperature of the solid-liquid transition. In the case of `Cc1ccc(-n2nnc(-c3ccc(S(=O)(=O)N[C@H](Cc4ccccc4)C(=O)O)s3)n2)cc1` [Compound 95], the melting point was 166 to 169 °C.
The same measure, in the same setting: the figure for `CC(C)[C@@H](NS(=O)(=O)c1ccc(-n2nnc(-c3ccc(C(F)(F)F)cc3)n2)cc1)C(=O)O` [Compound 104] is 198 to 200 °C; for `CCc1ccc(-c2nnn(-c3ccc(S(=O)(=O)N[C@H](Cc4ccccc4)C(=O)O)cc3)n2)cc1` [Compound 108] it is 187 to 189 °C.
`C[C@@H](NS(=O)(=O)c1ccc(-n2nnc(-c3ccc(F)cc3)n2)cc1)C(=O)O` [Compound 114]: the melting point lay in the range of 194 to 195 °C.

The values above are taken from patent publication US6423729B1, “Therapeutic or prophylactic agent for glomerulopathy” (Shionogi & Co., Ltd., priority 1997, dated 2002).
